Laboratory results taken from patent US20030232101A1, “Topical formulations of resorcinols and cannibinoids and methods of use” (Immugen Pharmaceuticals, Inc., priority 2002, published 2003).
Read-outs that look alike come from different tables or passages of the source.

Tests used:
HIV-1 strain RoJo = experiment: PBMC time of addition assay (RT activity in supernatant at 6 days); assay type: cell-based; conditions: for IC50: read-out: IC50
Excerpt: (§1) Human peripheral blood mononuclear cells (PBMCs) from a minimum of 2 donors, that have been blasted with PHA and IL-2, were counted, viability determined by Trypan Blue dye exclusion and mixed in equal ratios. Pooled donors were used to minimize the variability observed between individual donors which results from quantitative and qualitative differences in HIV infection and overall response to the PHA and IL-2 of primary lymphocyte populations. The cells were resuspended at 1×10^6 cells /mL in RPMI 1640 without phenol red supplemented with 15% Fetal Bovine Serum (heat inactivated), 2 mM L-glutamine, 100 U/mL penicillin, 100 μg/mL streptomycin, 10 μg/mL gentamycin and IL-2 (20 U/mL, R&D Systems, Minneapolis, Minn.). Fifty microliters of cells were then distributed to the inner 60 wells of a 96 well round bottom microtiter culture plate in a standard format developed by the Infectious Disease Research department of Southern Research Institute. Each plate contains cell control wells (cells only), virus control wells (cells plus virus), and experimental wells (drug plus cells plus virus). Alternatively, cells were cultured in T25 cm^2 or T75 cm^2 tissue culture flasks at a starting density of 1×10^6 cells per ml. Serially diluted compounds were added to the microtiter plate or tissue culture flask followed by the appropriate pre-titered strain of HIV-1. For virus replication inhibition experiments the HIV-1 strain RoJo was used. This is a low passage presumable subtype B pediatric isolate with a syncytium inducing (SI) phenotype in MT-2 cells isolated by Southern Research Institute personnel. All samples were assayed in triplicate where possible with an accompanying determination of compound toxicity. The final volume per well in the microtiter plates was 200 μL. The final volume in the tissue culture flask varied depending upon experimental design and flask size. Assays were incubated for 6 days in a humidified atmosphere at 37° C., 5% CO^2, after which supernatants were collected, for analysis of RT activity and cell viability by MTS dye reduction. Culture were also examined microscopically, any abnormalities noted, and in the case of tissue culture flasks cell counts and viability determined by Trypan Blue Dye exclusion.
(§2) Time of addition assays were performed with PBMCs in two ways. For both assays, PBMCs were isolated and cultured under the conditions as described above. Time of addition assays were carried out in either a tissue culture flask format (T-75 cm^2) or in microtiter wells. In both cases due to the lack of plastic adherence and heterogeneity of the PBMC population for susceptibility to infection, it was not possible to use complete removal of virus following a timed adsorption to synchronize the infection and limit the assay to a single round of infection. Therefore, serial washing by partial removal of the media was used to reduce the concentration of virus and compound (if required) in the assay. Compound addition in relationship to antiviral activity was either assessed over a short addition interval immediately before or after virus addition or for up to 72 h post infection. For all assays virus replication was assessed at 6 days of culture by determining RT expression in cell-free supernatants. In the tissue culture flask format cells were counted and Trypan Blue Dye exclusion used to monitor compound cytotoxicity. Cell viability in the 96 well microtiter plate format was determined by MTS dye reduction. AZT was used as a positive control.
Reverse transcriptase activity was measured in cell-free supernatants. Tritiated thymidine triphosphate (NEN) (TTP) was resuspended in distilled H2O at 5 Ci/mL. Poly rA and oligo dT were prepared as a stock solution which was kept at −20° C. The RT reaction buffer was prepared fresh on a daily basis and consists of 125 μL 1.0 M EGTA, 125 μL dH2O, 110 μL 10% SDS, 50 μL 1.0 M Tris (pH 7.4), 50 μL 1.0 M DTT, and 40 μL 1.0 M MgCl2. […]

[1] = tested on: peripheral blood mononuclear cells (PBMCs); experiment: PBMC cell viability in time of addition assay (MTS / Trypan Blue); assay type: cell-based, Human; conditions: read-out: TC50 (the source's name)
Excerpt: as §1, §2
At assay termination the assay plates were stained with the soluble tetrazolium-based dye MTS (CellTiter96® Reagent Promega) to determine cell viability and quantify compound toxicity. MTS is metabolized by the mitochondria enzymes of metabolically active cells to a soluble formazan product, allowing the rapid quantitative analysis cell viability and compound cytotoxicity. […] At termination of the assay 20 μL of MTS reagent was added per well and incubated for 4 h at 37° C. […]

IIIB strain of HIV-1 = experiment: Virus attachment assay, HeLa CD4 LTR β-gal cells (Experimental Example 2); assay type: cell-based; conditions: virus adsorption interval 1 to 2 h
Description: This assay detects compounds that block virus attachment using HeLa CD4 LTR β-gal cells. HeLa CD4 LTR β-gal cells were cultured with selection antibiotics. Twenty-four h prior to initiation of the assay, the cells were trypsinized, counted and plated in a 0.2 cm well in media without selection antibiotics. At 24 h media is removed and compound in media placed on the cells and incubated for 15 min at 37° C. A known titer of the IIIB strain of HIV-1 was then added to the wells and the incubation continued for 1 to 2 h. At the end of the incubation the wells were washed 2 times with media and the culture continued for 40 to 48 h. At termination of the assay, media is removed and β-galactosidase enzyme expression determined by chemiluminescence per manufacturer's instructions (Tropix Gal-screen, Bedford Mass.). Compound toxicity is monitored on a sister plate by XTT or MTS dye reduction. All determinations are performed in triplicate with serial_Log10 dilution of the test materials.

HIV-1 (96USHIPS7 strain) = experiment: HIV attachment assay in PBMCs (cell-associated p24); assay type: cell-based; conditions: time 0 h
Description: ELISA kits were purchased from Coulter Electronics. The assay was performed according to the manufacturer's instructions. Control curves were generated in each assay to accurately quantitate the amount of p24 antigen in each sample. For experiments using cell lysates. Fifty thousand (5×10^4) viable cells were lysed in Coulter ELISA buffer and subjected to 1 round of freeze/thawed to liberate trapped p24 and p24 detected per manufacturers instructions. HIV capsid protein (p24) was quantitated spectrophotometrically at 450 nm using a Molecular Devices Vmax plate reader using a standard curve. Final concentrations were calculated from the optical density values using the Molecular Devices Soft Max software package.
The attachment assay with PBMCs was performed as follows. Briefly, 1×10^6 PHA/IL-2 PBMCs were incubated for 0, 2, 4 and 24 hours with IMG compounds and cannabidiol in polypropylene tubes. A pre-titered amount of HIV-1 (96USHIPS7 strain, obtained from the AIDS Research and Reference Reagent Program ) was added in the presence of compound and incubated for 3 h at 37° C. After incubation the cultures were washed 3 times (400×g, 10 min, 4° C.) with media (1:25,000 dilution of input p24), the cell pellets lysed with p24 lysing buffer (Coulter) and p24 content determined by ELISA.
PBMCs pretreated with compounds for 0, 2, 4, and 24 were incubated with cell-free HIV-1 for 3 h and the excess unbound HIV removed. The assessed the amount of HIV bound to the cell was then assessed by measuring cell-associated p24 content of total cell lysates.

`Cc1cn([C@H]2C[C@H](N=[N+]=[N-])[C@@H](CO)O2)c(=O)[nH]c1=O` [AZT, reference compound] gave an enhancement of activity (HIV-1 strain RoJo; 4 h preincubation) of 4.6 fold, an IC50 (HIV-1 strain RoJo; addition prior to infection, pre-treatment 0 h) of 1 nM and an IC50 (HIV-1 strain RoJo; addition prior to infection, pre-treatment 2 h) of 1 nM. For the same compound, the IC50 (HIV-1 strain RoJo; addition prior to infection, pre-treatment 4 h) was 1 nM, the IC50 (HIV-1 strain RoJo; addition prior to infection, pre-treatment 24 h) was 3 nM and the IC50 (HIV-1 strain RoJo; treatment 6 h post) was 4.6 nM. The IC50 (HIV-1 strain RoJo; treatment at infection) was 3.7 nM, the IC50 (HIV-1 strain RoJo; treatment −4 h pre) was 0.8 nM and the CC50 ([1]; treatment 6 h post) was > 4000 nM. For the same compound, the CC50 ([1]; treatment at infection) was > 4000 nM, the CC50 ([1]; treatment −4 h pre) was > 4000 nM and the “activity in virus attachment assay” value (IIIB strain of HIV-1) was “not active”.
With `Cc1ccnc2c1NC(=O)c1cccnc1N2C1CC1` [Nevirapine, reference compound] the “% Control” value (HIV-1 (96USHIPS7 strain); 10 μM) was 81.2%, the “pg p24” value (HIV-1 (96USHIPS7 strain); 10 μM) was 311.7 pg and the “suppression of virus attachment” value (HIV-1 (96USHIPS7 strain); 10 μM) was 19% suppression. For the same compound, the “suppression of virus attachment” value (HIV-1 (96USHIPS7 strain); 10 μM, listed as nevaripine) was 19%.
With Dextran Sulfate [reference compound] the “% Control” value (HIV-1 (96USHIPS7 strain); 20 μg/ml) was 57.6%, the “pg p24” value (HIV-1 (96USHIPS7 strain); 20 μg/ml) was 221 pg and the “suppression of virus attachment” value (HIV-1 (96USHIPS7 strain); 20 μg/ml) was 43.4% suppression. For the same compound, the “suppression of virus attachment” value (HIV-1 (96USHIPS7 strain); 20 μg/ml, listed as dextran sulfate) was 43.4%.
